Measurements published in ChEMBL document CHEMBL1144213, “Synthesis and antiproliferative activity of unnatural enantiomers of 7-epi-goniofufurone and crassalactone C” (Bioorg Med Chem Lett, 2008).

Legend:
[1] = system: HL-60; assay: Cytotoxicity against human HL-60 cells after 72 hrs by MTT assay; type: functional, cell-based; settings: HL-60, 72 h
[2] = system: MRC5; assay: Cytotoxicity against human MRC5 cells after 72 hrs by MTT assay; type: cell-based; settings: MRC5, 72 h
[3] = system: HeLa; assay: Cytotoxicity against human HeLa cells after 72 hrs by MTT assay; type: functional, cell-based
[4] = system: Raji; assay: Cytotoxicity against human Raji cells after 72 hrs by MTT assay; type: functional, cell-based
[5] = system: Jurkat; assay: Cytotoxicity against human Jurkat cells after 72 hrs by MTT assay; type: functional, cell-based

| SMILES | IC50 [1] [µM] | IC50 [2] [µM] | IC50 [3] [µM] | IC50 [4] [µM] | IC50 [5] [µM] |
| --- | --- | --- | --- | --- | --- |
| O=C1C[C@@H]2O[C@@H]3[C@@H](O[C@H]3c3ccccc3)[C@@H]2O1 | 0.025 | > 100 | 0.97 | 0.45 | 28.4 |
| COc1cccc2c1C(=O)c1c(O)c3c(c(O)c1C2=O)C[C@@](O)(C(=O)CO)C[C@@H]3O[C@H]1C[C@H](N)[C@H](O)[C@H](C)O1 [DOXORUBICIN] | 0.92 |  |  |  | 0.03 |
| O=C1C[C@@H]2O[C@@H]([C@H](O)c3ccccc3)[C@@H](O)[C@@H]2O1 | 13.9 | > 100 | 4.38 | > 100 | 0.05 |
| O=C(/C=C/c1ccccc1)O[C@@H](c1ccccc1)[C@@H]1O[C@H]2CC(=O)O[C@H]2[C@@H]1O [CRASSALACTONE C (ENANTIOMERIC MIX)] | 1.87 | > 100 | 1.18 | 0.57 | 15.7 |
| O=C1C[C@H]2O[C@H]([C@@H](O)c3ccccc3)[C@H](O)[C@H]2O1 | 22 | > 100 | 0.89 | 1.25 | 18.6 |
| O=C(/C=C/c1ccccc1)O[C@H](c1ccccc1)[C@H]1O[C@@H]2CC(=O)O[C@@H]2[C@H]1O [(+)-CRASSALACTONE C] | > 100 | > 100 | 11.2 | 15.5 | 25.4 |
